Measurements published in paper PMC12860872, “Preclinical evaluation of DOTAGA.Glu.(FAPI)2 and DO3A.Glu.(FAPI)2 as theranostics with human dosimetry extrapolation to lutetium-177 and terbium-161 analogs” (European Journal of Nuclear Medicine and Molecular Imaging, 2025).
Several values for one entry are separate records, joined by “and”; a condition that tells them apart may be missing. Equal values may be shown once.

Test: Extrapolated human dosimetry (OLINDA/EXM, ICRP-89 phantoms)
Procedure: To address inter-animal variability, the TIACs for each source organ were calculated from both the mean nTACs and the nTACs obtainend from fitting the mean ± 1 standard deviation (SD) of the normalized time-activity data, providing upper and lower bounds.
The mice-to-human TIAC extrapolation accounted for species-specific differences in relative source organ masses, m(organ), as compared to the total body weight (WB), for the mice (m) and human (h) models respectively.
The human organ masses, m(organ)h, were obtained from ICRP-89 adult male and female reference phantoms, while the murine organ masses, m(organ)m, were derived from the standard MOBY mouse model. The extrapolated human TIACs, TIACh were entered in the OLINDA/EXM software to compute the absorbed doses to target organs and the effective dose for adult male, female, and gender-averaged human models. […]
The TIACs, for [177Lu]Lu-DOTAGA.Glu.(FAPI)2 and [177Lu]Lu-DO3A.Glu.(FAPI)2, were determined by time integration of the nTACs. To account for the inter-animal variability, the TIACs for each source organ were calculated using both the mean nTACs and the nTACs obtainend from fitting the mean ±1 standard deviation (SD) of the normalized time-activity data. This approach provided the upper and the lower bounds for the estimated TIACs.
The mice-to-human TIAC extrapolation was obtained considering the different (species-specific) relative source organ masses, m(organ), as compared to the total body weight (WB), for the mice (m) and human (h) models respectively.
The human organ masses, m(organ)h, were obtained from the adult male and female reference models phantoms defined in ICRP-89, while the murine organ masses, m(organ)m, were derived from the standard MOBY mouse model. The extrapolated human TIACs values, TIACh, for each source organ were input into the kinetic module of the OLINDA/EXM software (version 2.1, HERMES Medical Solutions AB, Stockholm, Sweden) to compute the absorbed doses to target organs and the effective dose for adult male, female, and gender-averaged human models. […]

[1] = ICRP 89 Adult Female, extrapolated
[2] = ICRP 89 Adult Male, extrapolated

## N#C[C@@H]1CC(F)(F)CN1C(=O)CNC(=O)c1ccnc2ccc(OCCCCNC(=O)CC[C@H](NC(=O)CN3CCN(CC(=O)[O-])CCN(CC(=O)[O-])CCN(CC(=O)[O-])CC3)C(=O)NCCCCOc3ccc4nccc(C(=O)NCC(=O)N5CC(F)(F)C[C@H]5C#N)c4c3)cc12.[161Tb+3] [[^161Tb]Tb-DO3A.Glu.(FAPI)2]
[1]
  Absorbed dose (AD average) Adrenals: 1.39E-02 mGy/Mbq
  Absorbed dose (AD average) Brain: 3.68E-02 mGy/Mbq
  Absorbed dose (AD average) Breasts: 3.54E-02 mGy/Mbq
  Absorbed dose (AD average) Esophagus: 3.67E-02 mGy/Mbq
  Absorbed dose (AD average) Eyes: 3.68E-02 mGy/Mbq
  Absorbed dose (AD average) Gallbladder Wall: 3.79E-02 mGy/Mbq
  Absorbed dose (AD average) Heart Wall: 3.39E-02 mGy/Mbq
  Absorbed dose (AD average) Kidneys: 3.48E-02 ± 0.001 mGy/Mbq and 3.48E-02 mGy/Mbq
  Absorbed dose (AD average) Left colon: 3.75E-02 mGy/Mbq
  Absorbed dose (AD average) Liver: 1.01E-01 ± 0.004 mGy/Mbq and 1.01E-01 mGy/Mbq
  Absorbed dose (AD average) Lungs: 5.78E-02 ± 0.01 mGy/Mbq and 5.78E-02 mGy/Mbq
  Absorbed dose (AD average) Osteogenic Cells: 8.70E-02 ± 0.003 mGy/Mbq and 8.70E-02 mGy/Mbq
  Absorbed dose (AD average) Ovaries: 3.75E-02 mGy/Mbq
  Absorbed dose (AD average) Pancreas: 3.59E-02 ± 0.001 mGy/Mbq and 3.59E-02 mGy/Mbq
  Absorbed dose (AD average) Rectum: 3.75E-02 mGy/Mbq
  Absorbed dose (AD average) Red Marrow: 4.37E-02 ± 0.002 mGy/Mbq and 4.37E-02 mGy/Mbq
  Absorbed dose (AD average) Right colon: 3.76E-02 mGy/Mbq
  Absorbed dose (AD average) Salivary Glands: 1.22E-01 ± 0.01 mGy/Mbq and 1.22E-01 mGy/Mbq
  Absorbed dose (AD average) Small Intestine: 3.72E-02 ± 0.002 mGy/Mbq and 3.72E-02 mGy/Mbq
  Absorbed dose (AD average) Spleen: 8.87E-02 ± 0.004 mGy/Mbq and 8.87E-02 mGy/Mbq
  Absorbed dose (AD average) Stomach Wall: 3.75E-02 mGy/Mbq
  Absorbed dose (AD average) Thymus: 3.72E-02 mGy/Mbq
  Absorbed dose (AD average) Thyroid: 3.64E-02 mGy/Mbq
  Absorbed dose (AD average) Total Body: 4.70E-02 ± 0.002 mGy/Mbq and 4.70E-02 mGy/Mbq
  Absorbed dose (AD average) Urinary Bladder Wall: 3.70E-02 mGy/Mbq
  Absorbed dose (AD average) Uterus: 3.73E-02 mGy/Mbq
  Effective dose (average): 4.10E-02
[2]
  Absorbed dose (AD average) Adrenals: 1.05E-02 mGy/Mbq
  Absorbed dose (AD average) Brain: 2.80E-02 mGy/Mbq
  Absorbed dose (AD average) Esophagus: 2.84E-02 mGy/Mbq
  Absorbed dose (AD average) Eyes: 2.80E-02 mGy/Mbq
  Absorbed dose (AD average) Gallbladder Wall: 3.02E-02 mGy/Mbq
  Absorbed dose (AD average) Heart Wall: 2.78E-02 mGy/Mbq
  Absorbed dose (AD average) Kidneys: 2.84E-02 ± 0.001 mGy/Mbq and 2.84E-02 mGy/Mbq
  Absorbed dose (AD average) Left colon: 2.85E-02 mGy/Mbq
  Absorbed dose (AD average) Liver: 8.31E-02 ± 0.003 mGy/Mbq and 8.31E-02 mGy/Mbq
  Absorbed dose (AD average) Lungs: 4.73E-02 ± 0.01 mGy/Mbq and 4.73E-02 mGy/Mbq
  Absorbed dose (AD average) Osteogenic Cells: 8.97E-02 ± 0.003 mGy/Mbq and 8.97E-02 mGy/Mbq
  Absorbed dose (AD average) Pancreas: 2.88E-02 ± 0.001 mGy/Mbq and 2.88E-02 mGy/Mbq
  Absorbed dose (AD average) Prostate: 2.81E-02 mGy/Mbq
  Absorbed dose (AD average) Rectum: 2.84E-02 mGy/Mbq
  Absorbed dose (AD average) Red Marrow: 3.45E-02 ± 0.001 mGy/Mbq and 3.45E-02 mGy/Mbq
  Absorbed dose (AD average) Right colon: 2.86E-02 mGy/Mbq
  Absorbed dose (AD average) Salivary Glands: 1.00E-01 ± 0.01 mGy/Mbq and 1.00E-01 mGy/Mbq
  Absorbed dose (AD average) Small Intestine: 2.85E-02 ± 0.001 mGy/Mbq and 2.85E-02 mGy/Mbq
  Absorbed dose (AD average) Spleen: 7.27E-02 ± 0.003 mGy/Mbq and 7.27E-02 mGy/Mbq
  Absorbed dose (AD average) Stomach Wall: 2.84E-02 mGy/Mbq
  Absorbed dose (AD average) Testes: 2.72E-02 mGy/Mbq
  Absorbed dose (AD average) Thymus: 2.79E-02 mGy/Mbq
  Absorbed dose (AD average) Thyroid: 2.81E-02 mGy/Mbq
  Absorbed dose (AD average) Total Body: 3.70E-02 ± 0.002 mGy/Mbq and 3.70E-02 mGy/Mbq
  Absorbed dose (AD average) Urinary Bladder Wall: 2.81E-02 mGy/Mbq
ICRP 89 Adult Male, extrapolated, in mSv/MBq (unit assumed)
  Effective dose (average): 2.91E-02
Human extrapolation, average over tissues
  higher tissue doses vs. the 177Lu-labeled analogs: ~ 38%
